The record followed here is article PMC6290556, “1,4-Disubstituted Thiosemicarbazide Derivatives are Potent Inhibitors of Toxoplasma gondii Proliferation” (Molecules, 2014).

Values after ≈ are worked out from the molar mass of the structure shown.

Data set [1] in a line: MTT cell viability assay (ISO 10993-5). Format: cell-based, mouse. Particulars: mouse, 24 h, ± SD, read-out: viability of L929 cells. How it is done: Cell line L929 (ATTC® Catalog No. […] The MTT assay was used according to international standards: ISO 10993-5:2009(E), Biological evaluation of medical devices, Part 5: Tests for in vitro cytotoxicity. […] Then, 1 mg/mL MTT (50 μL/well) was added to each well and incubated at 37 °C, 10% CO2 for 2 h. Mitochondrial dehydrogenases of viable cells reduced the yellowish water-soluble MTT to water-insoluble formazan crystals, which were solubilized with dimethyl sulfoxide (DMSO). The cell culture medium was aspirated cautiously, after which 150 μL DMSO was added to each well and mixed thoroughly. Optical density (OD) was read on the ELISA reader (Multiskan EX, Labsystems, Vienna, VA, USA) at 550 nm. […] All experiments were performed in triplicate.

Data set [2] relates to T. gondii RH strain. As to the kind of experiment: quantitative real-time PCR (B1 gene) of T. gondii in infected L929 cells. The note with it: assay B qRT-PCR, L929 host cells. Format: cell-based, Toxoplasma gondii. As to the method:
T. gondii genomic DNA was isolated from the tachyzoites of RH strain with Wizard® SV Genomic DNA Purification System (Promega, Madison, WI, USA) according to the manufacturer’s instruction. The DNA concentration and purity were measured using a NanoPhotometer (Implen, München, Germany), while the integrity of the extracted DNA was tested using an ethidium bromide-stained agarose gel. DNA was used for the detection and quantitationof T. gondii in analyzed samples and it was stored at −20 °C until use.
A quantitative real-time PCR (qRT-PCR) assay, targeting B1 gene was performed to detect and to quantitate T. gondii in analyzed samples (1g, 2b, 2m, 3d, 3l and sulphadiazine) according to the modified protocol of Wahab et al.. […] Amplification was carried out on a 7900HT real-time PCR system (Applied Biosystems, Carlsbad, CA, USA). The reaction mixtures (25 µL) consisted of 1x TaqMan PCR master mix supplemented with ROX (Applied Biosystems), 300 nM probe, 900 nM of each primer and 2 µL of template DNA. For quantification a standard curve was constructed using 10-fold serial dilutions of DNA extracted from a known number of T. gondii. The cycling parameters were: 50 °C for 2 min, initial activation at 95 °C for 10 min, and 45 two-step cycles of 95 °C for 15 s and 60 °C for 1 min. All samples were analyzed in triplicate.

The target of data set [3] is T1, topoisomerase IV (Staphylococcus aureus, UniProt P0C1S7+P0C1U9).
T1 construct: purchased Inspiralis
T1 sequence (P0C1U9 whole entry): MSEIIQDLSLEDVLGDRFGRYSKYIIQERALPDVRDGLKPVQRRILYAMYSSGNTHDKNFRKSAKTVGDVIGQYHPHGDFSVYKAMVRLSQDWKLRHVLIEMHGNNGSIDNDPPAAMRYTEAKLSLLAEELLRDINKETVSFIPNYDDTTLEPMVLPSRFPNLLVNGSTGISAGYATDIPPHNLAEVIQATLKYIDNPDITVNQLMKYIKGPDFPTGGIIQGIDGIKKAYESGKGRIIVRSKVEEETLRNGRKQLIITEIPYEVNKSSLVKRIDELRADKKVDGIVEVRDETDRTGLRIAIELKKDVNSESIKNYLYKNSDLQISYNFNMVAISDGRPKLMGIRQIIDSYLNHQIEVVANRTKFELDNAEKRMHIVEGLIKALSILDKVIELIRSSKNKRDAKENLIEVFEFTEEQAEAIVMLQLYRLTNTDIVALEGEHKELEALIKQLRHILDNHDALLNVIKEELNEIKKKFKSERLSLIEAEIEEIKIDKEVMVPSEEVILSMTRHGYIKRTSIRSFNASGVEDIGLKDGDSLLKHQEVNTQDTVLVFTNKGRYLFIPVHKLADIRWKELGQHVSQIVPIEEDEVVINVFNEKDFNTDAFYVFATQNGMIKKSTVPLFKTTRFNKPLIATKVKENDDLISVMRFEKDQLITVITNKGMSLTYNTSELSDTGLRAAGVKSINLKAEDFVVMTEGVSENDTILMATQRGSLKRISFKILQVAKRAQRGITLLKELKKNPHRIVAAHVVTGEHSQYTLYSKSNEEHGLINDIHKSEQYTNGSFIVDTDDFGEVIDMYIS
T1 sequence (P0C1S7 whole entry): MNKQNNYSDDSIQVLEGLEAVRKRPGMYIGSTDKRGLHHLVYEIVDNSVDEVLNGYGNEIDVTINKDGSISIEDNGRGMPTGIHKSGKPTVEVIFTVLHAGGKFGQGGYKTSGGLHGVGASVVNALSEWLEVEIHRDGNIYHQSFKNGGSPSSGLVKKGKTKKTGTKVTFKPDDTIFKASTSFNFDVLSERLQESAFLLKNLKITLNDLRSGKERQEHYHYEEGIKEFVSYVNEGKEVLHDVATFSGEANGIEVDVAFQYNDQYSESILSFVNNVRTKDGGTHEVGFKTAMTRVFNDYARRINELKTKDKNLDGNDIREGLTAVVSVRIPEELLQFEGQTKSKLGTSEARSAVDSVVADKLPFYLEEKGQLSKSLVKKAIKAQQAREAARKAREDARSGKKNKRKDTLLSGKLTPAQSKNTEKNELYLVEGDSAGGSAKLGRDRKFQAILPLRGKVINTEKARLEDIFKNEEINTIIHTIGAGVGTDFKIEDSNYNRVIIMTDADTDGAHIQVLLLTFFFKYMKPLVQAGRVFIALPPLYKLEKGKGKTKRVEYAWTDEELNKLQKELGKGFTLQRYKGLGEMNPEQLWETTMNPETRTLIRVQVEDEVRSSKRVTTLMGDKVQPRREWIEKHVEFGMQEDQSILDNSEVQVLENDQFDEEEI
Put plainly: S. aureus topoisomerase IV decatenation assay. Format: biochemical. As to the method: The assays were performed using S. aureus topoisomerase IV decatenation kits (Inspiralis). Interlinked kDNA substrate ([…]) was incubated with 1 unit of topoisomerase IV (Inspiralis), in the dedicated decatenation assay buffer supplied by the manufacturer, in the presence of varying concentrations of the compounds tested. Reactions were carried out at 37 °C for 1 h and then terminated by the addition of equal volume of 2× STOP Buffer (40% sucrose, 100 mM Tris-Cl pH 7.5, 1 mM EDTA, 0.5 mg/mL bromophenol blue) and chloroform/isoamyl alcohol. Samples were vortexed, centrifuged and run through a 15 cm 1% agarose gel in TAE buffer for 1.5 h at 80 V. Gels were stained with ethidium bromide and visualized under UV light. The concentrations of the inhibitor that prevented 50% of the kinetoplast DNA from being converted into decatenated minicircles (IC50 values) were determined by plotting the results obtained from the densytometric analyses of the gel images using Quantity One software (BioRad, Hercules, CA, USA).

Data set [4] relates to Gram-positive and Gram-negative bacterial strains. Put plainly: antibacterial assay (disc diffusion / agar dilution). Format: cell-based. The note with it: even at high concentrations. The source says: The following microorganisms were used in this study: Staphylococcus aureus (ATCC 25923, ATCC 6538, ATCC 29213, NCTC 4163), Staphylococcus epidermidis ATCC 12228, Bacillus subtilis ATCC 6633, Bacillus cereus ATCC 11778, Micrococcus luteus (ATCC 9341, ATCC 10240), Escherichia coli (ATCC 10538, ATCC 25922, NCTC 8196), […] NCTC 4635, Pseudomonas aeruginosa (ATCC 15442, ATCC 27853, NCTC 6749), and Bordetella bronchiseptica ATCC 4617. Initially, antibacterial activity of thiosemicarbazide derivatives was screened on the basis of growth inhibition zone (giz) utilizing the disc diffusion method, according to the Clinical and Laboratory Standards Institute guidelines. For compounds showing the inhibitory effect on the growth of tested bacteria, monitored as an appearance of giz, the minimal inhibitory concentrations (MICs) were determined using agar dilution method, according to the Clinical and Laboratory Standards Institute guidelines. The minimal inhibitory concentrations (MICs) were defined as the lowest concentration of the compound preventing growth of the tested microorganism. In both methods, recommended Mueller-Hinton II agar medium (Becton Dickinson, Heidelberg, Germany) was used. Solutions containing the tested agents were prepared in methanol or DMSO. Ciprofloxacin was used as control antimicrobial agent.

Data set [5] relates to T. gondii RH strain tachyzoites. As to the kind of experiment: [3H]uracil incorporation assay of T. gondii proliferation in L929 host cells. Format: cell-based, Toxoplasma gondii. The note with it: assay A [3H]uracil incorporation, vs untreated blank. How it is done: In the next step of our studies, the prepared 1,4-disubstituted thiosemicarbazides (series 1–3) were used to assess the inhibition of T. gondii growth in vitro. For this purpose, intracellular parasites (tachyzoites) of RH strain were incubated with different concentrations of the thiosemicarbazides ranging from 1 to 100 µg/mL. Inhibition of the parasite growth was monitored by measuring the specific incorporation of [^3H]uracil in the parasite’s nucleic acids.
The tachyzoites of T. gondii strain RH – intraspecies type I (ATCC_ Number 50174™) were maintained through passages on female C57BL/6 (H-2^b) and BALB/c (H-2^d) mice with genetically determined high and low susceptibility (respectively) to T. gondii infection (10–12 weeks old). Tachyzoites washed out from the peritoneum cavity were once expanded in vitro on L929 cells.
L929, (2 × 10^4 cells/100 µL/well) were grown in complete medium (IMDM) on 96-well plates. After 24 h incubation, a medium was removed and then T. gondii RH tachyzoites, suspended in culture medium supplemented with 1.0, 5.0, 10.0, 50.0 and 100.0 μg/mL 1,4-disubstituted thiosemicarbazides (1g, 2b, 2m, 3d, 3l) and as a control-sulfadiazine, were added (2 × 10^5 tachyzoites/200 µL/well) to the cell monolayers. After subsequent 48 h incubation 1 µCi/well of [^3H] uracil (Moravek Biochemicals Inc., Brea, CA, USA) was applied to each microculture for further 18–20 h. The amount of the isotope incorporated into the parasite nucleic acid pool, corresponding to the parasite growth, was measured by liquid scintillation counting with 1450 Microbeta Plus Liquid Scintillation Counter (Wallac Oy, Turku, Finland).

Data set [6] concerns the target T2, DNA gyrase (Staphylococcus aureus, UniProt P0A0K8+P20831).
T2 construct: purchased Inspiralis
Put plainly: S. aureus gyrase supercoiling assay. Format: biochemical. How it is done:
The assays were performed using S. aureus Gyrase Supercoiling Assay Kits (Inspiralis, Norwich, UK). Briefly, […] pBR322 plasmid DNA ([…]) was incubated with 1 unit of gyrase, in the dedicated supercoiling assay buffer supplied by the manufacturer, in the presence of varying concentrations of the compounds tested. Reactions were carried out at 37 °C for 1 h and then terminated by the addition of equal volume of 2 × STOP Buffer (40% sucrose, 100 mM Tris-Cl pH 7.5, 1 mM EDTA, and 0.5 mg/mL bromophenol blue) and chloroform/isoamyl alcohol. Samples were vortexed, centrifuged and run through a 15 cm 1% agarose gel in TAE buffer (40 mM Trisacetate, 2 mM EDTA) for 3 h at 50 V. Gels were stained with ethidium bromide and visualized under UV light.

Data set [7] has as its system T. gondii RH strain tachyzoites. Put plainly: [3H]uracil incorporation assay of T. gondii proliferation in L929 host cells. Format: cell-based. The note with it: Toxoplasma gondii, L929, read-out: IC50 (50% of T. gondii proliferation inhibition in vitro).

T2 sequence (P0A0K8 whole entry): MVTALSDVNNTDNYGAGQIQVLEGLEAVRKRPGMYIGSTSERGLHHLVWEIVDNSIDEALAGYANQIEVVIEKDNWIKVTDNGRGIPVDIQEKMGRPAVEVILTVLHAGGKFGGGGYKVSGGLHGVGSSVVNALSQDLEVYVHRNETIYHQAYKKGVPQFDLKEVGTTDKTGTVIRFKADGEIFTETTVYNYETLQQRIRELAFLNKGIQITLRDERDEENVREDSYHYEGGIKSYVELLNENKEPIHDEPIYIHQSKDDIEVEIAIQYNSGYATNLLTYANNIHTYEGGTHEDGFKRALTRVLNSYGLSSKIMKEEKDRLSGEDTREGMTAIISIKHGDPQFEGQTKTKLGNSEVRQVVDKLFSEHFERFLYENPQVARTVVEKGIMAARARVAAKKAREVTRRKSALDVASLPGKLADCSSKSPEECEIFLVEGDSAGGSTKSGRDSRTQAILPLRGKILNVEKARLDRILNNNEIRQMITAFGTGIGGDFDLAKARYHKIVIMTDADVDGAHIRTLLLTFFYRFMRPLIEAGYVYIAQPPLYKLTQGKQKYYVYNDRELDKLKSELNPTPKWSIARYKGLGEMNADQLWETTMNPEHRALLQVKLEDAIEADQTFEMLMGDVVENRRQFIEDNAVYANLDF
T2 sequence (P20831 whole entry): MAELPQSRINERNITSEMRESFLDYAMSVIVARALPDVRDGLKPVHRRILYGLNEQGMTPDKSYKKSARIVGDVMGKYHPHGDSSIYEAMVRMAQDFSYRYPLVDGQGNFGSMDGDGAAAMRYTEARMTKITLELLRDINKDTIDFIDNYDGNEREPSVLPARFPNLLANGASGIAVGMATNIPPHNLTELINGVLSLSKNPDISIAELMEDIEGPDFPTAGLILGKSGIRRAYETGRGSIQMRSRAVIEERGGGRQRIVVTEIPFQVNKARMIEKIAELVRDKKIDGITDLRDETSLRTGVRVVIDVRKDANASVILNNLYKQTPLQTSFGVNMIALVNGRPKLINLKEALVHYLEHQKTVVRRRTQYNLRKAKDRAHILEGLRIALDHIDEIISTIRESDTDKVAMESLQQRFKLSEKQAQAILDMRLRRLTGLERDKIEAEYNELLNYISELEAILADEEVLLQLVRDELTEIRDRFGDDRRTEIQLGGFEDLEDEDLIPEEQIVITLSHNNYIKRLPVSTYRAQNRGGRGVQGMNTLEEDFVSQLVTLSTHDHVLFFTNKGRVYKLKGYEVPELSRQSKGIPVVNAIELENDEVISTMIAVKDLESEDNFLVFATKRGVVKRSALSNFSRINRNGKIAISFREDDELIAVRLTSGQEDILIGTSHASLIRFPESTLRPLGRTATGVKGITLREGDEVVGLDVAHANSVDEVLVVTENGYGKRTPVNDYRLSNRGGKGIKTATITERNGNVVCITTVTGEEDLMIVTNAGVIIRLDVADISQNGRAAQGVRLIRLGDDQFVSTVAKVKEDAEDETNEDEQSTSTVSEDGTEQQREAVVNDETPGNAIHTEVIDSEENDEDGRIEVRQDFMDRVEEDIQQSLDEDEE

In the case of `O=C(NNC(=S)Nc1ccc(F)cc1)c1cccs1` [Compound 1g, 4-(4-fluorophenyl)-1-(thiophen-2-yl)carbonylthiosemicarbazide], the viability at 24 h, 1 µg/mL in data set [1] (1 µg/mL) came to 103 ± 2.69%. Moreover, the viability at 24 h, 5 µg/mL in data set [1] (5 µg/mL) was 99.5 ± 5.16%. Besides, the viability at 24 h, 10 µg/mL in data set [1] (10 µg/mL) stood at 97.3 ± 4.98%. Besides, the viability at 24 h, 50 µg/mL in data set [1] (50 µg/mL) is 79 ± 2.89%. In addition, in data set [1] (100 µg/mL), the viability at 24 h, 100 µg/mL was 67 ± 11.4%. For the same compound, in data set [1] (500 µg/mL), the viability at 24 h, 500 µg/mL was 39.8 ± 5.83%. The “intensity of T. gondii proliferation” value in data set [2] (10 µg/mL) turned out to be 61.01 ± 11.23 %; in data set [2] (50 µg/mL) it was 5.00 ± 2.56 %; in data set [5] (1 µg/mL) it was 96.14 ± 14.54%; in data set [5] (5 µg/mL) it was 74.94 ± 7.00 %; in data set [5] (10 µg/mL) it was 44.71 ± 16.60 %; in data set [5] (50 µg/mL) it was 12.62 ± 4.78 %. In addition, in data set [3], the “inhibitory effect on topoisomerase IV” value is on record as “No inhibitory effect”. Moreover, in data set [4], the “growth-inhibiting effect on bacterial strains” value is reported as “no growth-inhibiting effect”. Besides, in data set [6], the “inhibitory effect on DNA gyrase” value was “No inhibitory effect”. Moreover, in data set [7], the IC50 was 33.2 µg/mL (≈ 112 µM).
